Patent US9113629B2, “4-amino-6-(4-substituted-phenyl)-picolinates and 6-amino-2-(4-substituted-phenyl)-pyrimidine-4-carboxylates and their use as herbicides” (DOW AGROSCIENCES LLC, priority 2013, dated 2015)
Read-outs that look alike come from different tables or passages of the source.

Tests used:
[1] = tested on: VIOSS: wild pansy (Viola tricolor), field violet (Viola arvensis); assay: Post-emergent Test III, herbicidal activity in wheat and barley; type: in vivo; details: Table 8, 21 d; for GR50 VIOSS: dose for 50 percent growth reduction; for GR50 VIOSS / GR80 VIOSS: probit analysis; for GR80 VIOSS: dose for 80 percent growth reduction; for pest or weed control at 35 g/ha / pest or weed control at 70 g/ha: Viola tricolor, post-emergence, 504 h, post-emergent, read-out: Visual Growth Reduction (%) 21 Days After Application VIOSS; for pest or weed control at 35 g/ha: 35 g ai/ha; for pest or weed control at 70 g/ha: 70 g ai/ha
Summary of the method: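 Plants at the second to third true-leaf stage, grown in a greenhouse at about 18/17 °C with a 14 h photoperiod, were sprayed post-emergence at 187 L/ha with the high rate and ½× to 1/16× serial dilutions in an acetone/DMSO/crop-oil/surfactant carrier. Injury was rated visually at 21 d on a 0–100% scale, and GR20–GR90 were derived by probit analysis.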

[2] = tested on: test plant species in Direct Seeded Rice; assay: Postemergence herbicidal activity in direct seeded rice (Table 13); type: in vivo; details: for pest or weed control at 35 g/ha / pest or weed control at 70 g/ha: post-emergence, 504 h; for pest or weed control at 35 g/ha: 35 g ai/ha; for pest or weed control at 70 g/ha: 70 g ai/ha
Description: Seeds or nutlets of the desired test plant species were planted in a soil matrix prepared by mixing a loam soil (43 percent silt, 19 percent clay, and 38 percent sand, with a pH of about 8.1 and an organic matter content of about 1.5 percent) and river sand in an 80 to 20 ratio. The soil matrix was contained in plastic pots with a surface area of 139.7 cm^2. When required to ensure good germination and healthy plants, a fungicide treatment and/or other chemical or physical treatment was applied. The plants were grown for 10-17 d in a greenhouse with an approximate 14-h photoperiod which was maintained at about 29° C. during the day and 26° C. during the night. Nutrients and water were added on a regular basis and supplemental lighting was provided with overhead metal halide 1000-Watt lamps as necessary. The plants were employed for testing when they reached the second or third true leaf stage. A weighed amount, determined by the highest rate to be tested, of each test compound was placed in 25 mL glass vials and dissolved in a volume of 97:3 v/v acetone-DMSO to obtain 12× stock solutions. […] The concentrated stock solutions were added to the spray solutions so that the final acetone and DMSO concentrations were 16.2% and 0.5%, respectively. Spray solutions were diluted to the appropriate final concentrations with the addition of 10 mL of an aqueous mixture of 1.5% (v/v) Agri-dex crop oil concentrate. […] Compound requirements are based upon a 12 mL application volume at a rate of 187 L/ha. Formulated compounds were applied to the plant material with an overhead Mandel track sprayer equipped with […] nozzles calibrated to deliver 187 L/ha over an application area of 0.503 square meters (m^2) at a spray height of 18 inches (43 cm) above average plant canopy height. Control plants were sprayed in the same manner with the solvent blank. The treated plants and control plants were placed in a greenhouse as described above and watered by sub-irrigation to prevent wash-off of the test compounds. After 20-22 days, the condition of the test plants, compared with that of the untreated plants, was determined visually and scored on a scale of 0 to 100 percent where 0 corresponds to no injury and 100 corresponds to complete kill. By applying the well-accepted probit analysis as described by J. Berkson in Journal of the American Statistical Society, 48, 565 (1953) and by D. Finney in “Probit Analysis” Cambridge University Press (1952), the above data can be used to calculate GR20, GR50, GR80 and GR90 values, which are defined as growth reduction factors that correspond to the effective dose of herbicide required to kill or control 20 percent, 50 percent, 80 percent or 90 percent, respectively, of a target plant.

[3] = BRAPP: broadleaf signalgrass, Brachiaria platyphylla, probit analysis
[4] = CYPSS: sedge (Cyperus difformis, esculentus, iria), probit analysis
[5] = ECHSS: barnyardgrass (Echinochloa crus-galli), junglerice (Echinochloa colonum), probit analysis
[6] = LEFSS: sprangletop (Leptochloa chinensis, Leptochloa dubia), probit analysis
[7] = SCPJU: Japanese bulrush, Scirpus juncoides, probit analysis
[8] = SEBEX: hemp sesbania, Sesbania exaltata, probit analysis
[9] = BRAPP: broadleaf signalgrass, Brachiaria platyphylla, read-out: Visual Growth Reduction (%) 21 Days After Application BRAPP
[10] = CYPSS: sedge (Cyperus difformis, esculentus, iria), read-out: Visual Growth Reduction (%) 21 Days After Application CYPSS
[11] = ECHSS: barnyardgrass (Echinochloa crus-galli), junglerice (Echinochloa colonum), read-out: Visual Growth Reduction (%) 21 Days After Application ECHSS
[12] = LEFSS: sprangletop (Leptochloa chinensis, Leptochloa dubia), read-out: Visual Growth Reduction (%) 21 Days After Application LEFSS
[13] = ORYSS: Oryza sativa, read-out: Visual Growth Reduction (%) 21 Days After Application ORYSS
[14] = SCPJU: Japanese bulrush, Scirpus juncoides, read-out: Visual Growth Reduction (%) 21 Days After Application SCPJU
[15] = SEBEX: hemp sesbania, Sesbania exaltata, read-out: Visual Growth Reduction (%) 21 Days After Application SEBEX

SMILES: COC(=O)c1nc(-c2ccc(I)c(F)c2)c(C)c(N)c1Cl [Compound 79, Methyl 4-amino-3-chloro-6-(3-fluoro-4-iodophenyl)-5-methylpicolinate]
- GR50 VIOSS [1]: >140 g ai/ha
- GR80 VIOSS [1]: >140 g ai/ha
- pest or weed control at 35 g/ha [1]: 0 to 29%
- pest or weed control at 70 g/ha [1]: 0 to 29%

SMILES: Nc1cc(-c2cc(F)c(Br)cc2F)nc(C(=O)O)c1Cl [Compound 3]
- GR50 VIOSS [1]: 4 g ai/ha
- GR80 VIOSS [1]: 7 g ai/ha
- pest or weed control at 35 g/ha [1]: 95 to 100%
- pest or weed control at 70 g/ha [1]: 95 to 100%

SMILES: COC(=O)c1nc(-c2ccc(Br)cc2)c(Cl)c(N)c1Cl [Compound 47]
- GR50 BRAPP [2, 3]: >70 g ai/ha
- GR80 BRAPP [2, 3]: >70 g ai/ha
- GR50 CYPSS [2, 4]: 1 g ai/ha
- GR80 CYPSS [2, 4]: 3 g ai/ha
- GR50 ECHSS [2, 5]: >70 g ai/ha
- GR80 ECHSS [2, 5]: >70 g ai/ha
- GR50 LEFSS [2, 6]: >70 g ai/ha
- GR80 LEFSS [2, 6]: >70 g ai/ha
- GR20 ORYSS ([2]; ORYSS: Oryza sativa (crop), probit analysis): >70 g ai/ha
- GR50 SCPJU [2, 7]: 1 g ai/ha
- GR80 SCPJU [2, 7]: 1 g ai/ha
- GR50 SEBEX [2, 8]: 1 g ai/ha
- GR80 SEBEX [2, 8]: 1 g ai/ha
- pest or weed control at 35 g/ha [2, 9]: 30 to 44%
- pest or weed control at 70 g/ha [2, 9]: 30 to 44%
- pest or weed control at 35 g/ha [2, 10]: 95 to 100%
- pest or weed control at 70 g/ha [2, 10]: 95 to 100%
- pest or weed control at 35 g/ha [2, 11]: 30 to 44%
- pest or weed control at 70 g/ha [2, 11]: 0 to 29%
- pest or weed control at 35 g/ha [2, 12]: 75 to 84%
- pest or weed control at 70 g/ha [2, 12]: 0 to 29%
- pest or weed control at 35 g/ha [2, 13]: 0 to 29%
- pest or weed control at 70 g/ha [2, 13]: 0 to 29%
- pest or weed control at 35 g/ha [2, 14]: 95 to 100%
- pest or weed control at 70 g/ha [2, 14]: 95 to 100%
- pest or weed control at 35 g/ha [2, 15]: 95 to 100%
- pest or weed control at 70 g/ha [2, 15]: 95 to 100%
